Measured values: ChEMBL document CHEMBL5465560, “Selectivity Literature for EUbOPEN Chemogenomic Library” (2024)
Each block holds one molecule with its values, some of them ahead of it.

What was measured:
[1] = target: Polycomb protein SUZ12 (Homo sapiens) (UniProt Q15022); assay: Selectivity interaction (Methyltransferase screen (radiometric assays, panel of 8 PRMTs, 21 protein lysine methyltransferases, 3 DNA methyltransferases, and one RNA methyltransferase)) EUB0000272b SUZ12
[2] = target: Dual specificity protein kinase CLK1 (Homo sapiens, UniProt P49759); assay: Selectivity interaction (SelectScreen profiling (Invitrogen)) EUB0000607a CLK1; details: at 2 µM
Sequence of Dual specificity protein kinase CLK1 (P49759 whole entry, looked up, the tested form may be a part): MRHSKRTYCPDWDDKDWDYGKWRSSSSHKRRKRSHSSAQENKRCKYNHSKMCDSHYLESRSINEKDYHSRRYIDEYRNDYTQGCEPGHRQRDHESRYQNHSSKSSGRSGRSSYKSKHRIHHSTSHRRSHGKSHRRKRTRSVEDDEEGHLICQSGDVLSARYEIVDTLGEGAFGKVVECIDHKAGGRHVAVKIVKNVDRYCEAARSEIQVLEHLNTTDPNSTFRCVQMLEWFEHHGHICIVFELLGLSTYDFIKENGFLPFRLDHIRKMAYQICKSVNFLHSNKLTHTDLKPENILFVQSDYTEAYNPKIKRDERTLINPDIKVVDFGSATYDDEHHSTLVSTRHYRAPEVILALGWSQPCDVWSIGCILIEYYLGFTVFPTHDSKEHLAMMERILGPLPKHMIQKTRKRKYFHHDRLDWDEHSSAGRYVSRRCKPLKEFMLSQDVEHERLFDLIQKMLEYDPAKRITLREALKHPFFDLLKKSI

[3] = target: T1, Discoidin domain-containing receptor 2 (Homo sapiens) (UniProt Q16832); details: at 10 µM
T1 sequence (whole entry): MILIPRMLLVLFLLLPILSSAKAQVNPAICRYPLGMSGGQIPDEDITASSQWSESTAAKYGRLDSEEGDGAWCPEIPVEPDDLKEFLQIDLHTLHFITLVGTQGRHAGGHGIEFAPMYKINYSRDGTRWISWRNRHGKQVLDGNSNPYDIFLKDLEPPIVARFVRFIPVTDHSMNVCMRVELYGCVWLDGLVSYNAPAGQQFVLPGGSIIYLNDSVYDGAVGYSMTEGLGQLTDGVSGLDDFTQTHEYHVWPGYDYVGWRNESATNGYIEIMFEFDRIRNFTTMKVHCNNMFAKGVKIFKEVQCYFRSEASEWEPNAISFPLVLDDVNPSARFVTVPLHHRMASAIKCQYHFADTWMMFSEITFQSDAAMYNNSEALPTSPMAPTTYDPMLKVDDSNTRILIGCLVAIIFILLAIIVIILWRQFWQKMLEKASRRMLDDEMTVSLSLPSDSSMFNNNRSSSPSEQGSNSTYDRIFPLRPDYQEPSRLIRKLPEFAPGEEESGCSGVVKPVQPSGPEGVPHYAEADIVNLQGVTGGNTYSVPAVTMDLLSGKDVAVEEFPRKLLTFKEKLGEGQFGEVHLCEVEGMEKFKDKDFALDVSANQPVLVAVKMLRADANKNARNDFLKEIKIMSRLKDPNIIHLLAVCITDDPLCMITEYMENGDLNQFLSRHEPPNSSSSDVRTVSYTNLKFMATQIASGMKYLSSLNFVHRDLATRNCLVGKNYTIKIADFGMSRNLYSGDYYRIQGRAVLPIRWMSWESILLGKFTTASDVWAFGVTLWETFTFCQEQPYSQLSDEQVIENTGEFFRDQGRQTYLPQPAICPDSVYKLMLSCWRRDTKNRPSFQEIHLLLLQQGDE

[4] = target: Casein kinase I isoform epsilon (Homo sapiens, UniProt P49674); assay: Selectivity interaction (KinomeScan (DiscoverX)) EUB0000655a CSNK1E; details: at 10 µM
Sequence of Casein kinase I isoform epsilon (P49674 whole entry, looked up, canonical isoform): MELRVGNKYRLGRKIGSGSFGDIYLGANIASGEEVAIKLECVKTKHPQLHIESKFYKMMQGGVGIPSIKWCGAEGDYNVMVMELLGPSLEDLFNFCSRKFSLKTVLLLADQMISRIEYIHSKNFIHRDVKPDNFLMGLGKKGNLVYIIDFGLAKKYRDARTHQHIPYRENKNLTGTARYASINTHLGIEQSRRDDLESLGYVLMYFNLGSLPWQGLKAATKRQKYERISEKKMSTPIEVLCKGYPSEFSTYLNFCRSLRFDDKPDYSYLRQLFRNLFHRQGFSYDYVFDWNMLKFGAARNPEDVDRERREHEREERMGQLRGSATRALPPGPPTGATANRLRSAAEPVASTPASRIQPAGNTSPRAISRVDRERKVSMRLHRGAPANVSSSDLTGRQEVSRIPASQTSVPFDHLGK

[5] = target: T2, Serine/threonine-protein kinase TNNI3K (Homo sapiens) (UniProt Q59H18); assay: Selectivity interaction (KinomeScan (DiscoverX)) EUB0000045b TNNI3K
T2 sequence (whole entry): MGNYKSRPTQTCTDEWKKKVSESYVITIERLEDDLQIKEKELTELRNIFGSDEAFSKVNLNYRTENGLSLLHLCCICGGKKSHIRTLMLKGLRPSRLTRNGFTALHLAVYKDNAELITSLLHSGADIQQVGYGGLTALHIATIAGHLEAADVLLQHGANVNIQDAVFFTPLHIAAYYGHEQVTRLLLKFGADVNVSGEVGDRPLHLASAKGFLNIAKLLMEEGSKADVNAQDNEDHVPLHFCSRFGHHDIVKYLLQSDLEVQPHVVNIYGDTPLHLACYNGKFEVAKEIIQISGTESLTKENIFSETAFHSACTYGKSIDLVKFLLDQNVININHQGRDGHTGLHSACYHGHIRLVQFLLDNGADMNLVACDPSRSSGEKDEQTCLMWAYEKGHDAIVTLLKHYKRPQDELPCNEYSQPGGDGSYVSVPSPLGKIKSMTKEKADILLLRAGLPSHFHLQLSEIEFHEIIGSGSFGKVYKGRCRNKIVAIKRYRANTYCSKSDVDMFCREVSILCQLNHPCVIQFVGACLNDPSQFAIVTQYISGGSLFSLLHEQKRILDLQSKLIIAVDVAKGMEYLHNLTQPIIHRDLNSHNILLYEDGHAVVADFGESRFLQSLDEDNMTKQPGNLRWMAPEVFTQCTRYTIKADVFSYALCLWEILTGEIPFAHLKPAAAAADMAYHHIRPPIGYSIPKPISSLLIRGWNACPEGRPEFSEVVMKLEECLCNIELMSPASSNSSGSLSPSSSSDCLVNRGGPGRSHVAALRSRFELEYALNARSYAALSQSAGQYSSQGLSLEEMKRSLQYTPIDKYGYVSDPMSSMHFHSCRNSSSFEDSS

[6] = target: Fibroblast growth factor receptor 2 (Homo sapiens) (UniProt P21802); assay: Selectivity interaction (KinomeScan (DiscoverX)) EUB0000618a FGFR2; details: at 10 µM
Sequence of Fibroblast growth factor receptor 2 (Homo sapiens) (P21802 22-821 limits assumed): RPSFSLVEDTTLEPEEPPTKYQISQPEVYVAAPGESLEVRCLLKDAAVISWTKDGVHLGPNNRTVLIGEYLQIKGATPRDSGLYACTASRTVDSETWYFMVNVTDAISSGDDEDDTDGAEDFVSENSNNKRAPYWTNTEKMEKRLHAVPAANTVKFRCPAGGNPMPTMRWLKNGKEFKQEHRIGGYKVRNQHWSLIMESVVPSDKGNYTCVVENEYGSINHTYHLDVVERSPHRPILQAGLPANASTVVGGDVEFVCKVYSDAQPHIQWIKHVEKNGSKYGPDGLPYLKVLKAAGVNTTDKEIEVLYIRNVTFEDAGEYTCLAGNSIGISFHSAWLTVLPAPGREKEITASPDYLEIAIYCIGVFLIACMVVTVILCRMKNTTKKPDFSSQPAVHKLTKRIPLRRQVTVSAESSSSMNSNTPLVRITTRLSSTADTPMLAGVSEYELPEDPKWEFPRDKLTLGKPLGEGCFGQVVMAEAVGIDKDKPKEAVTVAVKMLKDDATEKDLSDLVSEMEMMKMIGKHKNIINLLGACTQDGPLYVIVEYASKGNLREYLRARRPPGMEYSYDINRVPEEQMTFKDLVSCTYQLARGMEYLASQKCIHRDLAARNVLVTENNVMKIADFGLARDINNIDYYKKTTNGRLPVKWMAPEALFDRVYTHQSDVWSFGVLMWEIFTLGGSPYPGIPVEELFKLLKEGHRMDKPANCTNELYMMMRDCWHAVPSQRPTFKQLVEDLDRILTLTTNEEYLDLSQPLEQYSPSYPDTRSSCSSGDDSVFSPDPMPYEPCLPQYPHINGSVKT

[7] = target: Tyrosine-protein kinase Lck (Homo sapiens, UniProt P06239); assay: Selectivity interaction (KinomeScan (DiscoverX)) EUB0001619a LCK; details: at 1 µM
Sequence of Tyrosine-protein kinase Lck (P06239 2-509 limits assumed): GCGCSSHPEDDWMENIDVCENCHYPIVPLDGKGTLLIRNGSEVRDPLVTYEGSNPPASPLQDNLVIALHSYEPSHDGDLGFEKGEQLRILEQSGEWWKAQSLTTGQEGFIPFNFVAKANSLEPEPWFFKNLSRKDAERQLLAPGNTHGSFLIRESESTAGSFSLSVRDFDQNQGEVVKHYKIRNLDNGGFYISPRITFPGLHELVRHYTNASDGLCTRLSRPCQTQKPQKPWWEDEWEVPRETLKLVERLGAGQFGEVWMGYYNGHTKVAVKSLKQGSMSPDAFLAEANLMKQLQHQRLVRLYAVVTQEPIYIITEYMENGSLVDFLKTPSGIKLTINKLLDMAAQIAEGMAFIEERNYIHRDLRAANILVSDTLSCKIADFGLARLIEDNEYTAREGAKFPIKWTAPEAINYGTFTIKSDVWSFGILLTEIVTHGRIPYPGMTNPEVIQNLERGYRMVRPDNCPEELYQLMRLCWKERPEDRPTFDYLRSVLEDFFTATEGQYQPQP

Sequence of Polycomb protein SUZ12 (Homo sapiens) (Q15022 whole entry): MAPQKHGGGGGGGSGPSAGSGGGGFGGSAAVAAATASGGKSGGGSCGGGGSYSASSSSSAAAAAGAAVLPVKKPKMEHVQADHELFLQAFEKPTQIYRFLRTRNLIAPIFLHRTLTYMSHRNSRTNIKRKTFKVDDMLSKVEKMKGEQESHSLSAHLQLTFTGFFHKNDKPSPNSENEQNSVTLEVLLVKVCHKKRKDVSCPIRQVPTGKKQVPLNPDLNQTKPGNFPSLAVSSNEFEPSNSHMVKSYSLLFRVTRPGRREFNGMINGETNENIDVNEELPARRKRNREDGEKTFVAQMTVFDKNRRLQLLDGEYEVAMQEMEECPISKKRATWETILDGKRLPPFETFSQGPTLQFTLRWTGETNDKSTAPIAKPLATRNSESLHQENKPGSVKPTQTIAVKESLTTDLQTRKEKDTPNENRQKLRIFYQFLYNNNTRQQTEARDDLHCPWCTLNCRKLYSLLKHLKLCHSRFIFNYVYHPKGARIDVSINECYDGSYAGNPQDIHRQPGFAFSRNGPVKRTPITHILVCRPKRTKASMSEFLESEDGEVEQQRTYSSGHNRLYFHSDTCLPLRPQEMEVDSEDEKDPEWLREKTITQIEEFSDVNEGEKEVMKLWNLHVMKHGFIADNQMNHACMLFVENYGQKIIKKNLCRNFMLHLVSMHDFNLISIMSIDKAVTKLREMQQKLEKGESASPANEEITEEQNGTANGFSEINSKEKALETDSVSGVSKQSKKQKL

% of activity ([1]; at 1 µM): 102%
% of activity ([1]; at 10 µM): 97.3%
SMILES: Cc1cc(C)cc([C@H]2c3cc(C)ccc3NC(=O)CN2C(=O)c2ccc(Br)s2)c1

SMILES: CNC(=O)Nc1ccc(-c2nc(N3CC4CCC(C3)O4)c3cnn(C4CCC5(CC4)OCCO5)c3n2)cc1
% of inhibition [2]: -3%

SMILES: COCC(=O)NC/C=C/c1ccc2ncnc(Nc3ccc(Oc4ccc(C)nc4)c(C)c3)c2c1 [CP-724714]
% of control [3]: 100%

SMILES: CN(C)CCOc1ccc(-c2nc(-c3ccncc3)c(-c3ccc4c(c3)CC/C4=N\O)[nH]2)cc1
% of control [4]: 14%

SMILES: C=CC(=O)Nc1cc(-n2c(=O)ccc3cnc4ccc(-c5ccc(NS(C)(=O)=O)cc5)cc4c32)ccc1C
% of control ([5]; at 1 µM): 100%
% of control ([5]; at 10 µM): 77%

SMILES: O[C@H]1CC[C@H](Nc2ncc3nc(Nc4c(F)cc(F)cc4F)n([C@H]4CCOC4)c3n2)CC1
% of control [6]: 83%

SMILES: N#Cc1cccc(-c2c[nH]c3ncnc(N4CCOCC4)c23)c1
% of control [7]: 95%
